According to paper PMC8452302 (CPT: Pharmacometrics & Systems Pharmacology, 2021):
Like-named read-outs stand apart in the source and are kept apart here.

Tests used:
BCRP = molecular target: T1, BCRP (Homo sapiens, UniProt Q9UNQ0); assay: In vitro BCRP inhibition, HEK293-BCRP membrane vesicles, rosuvastatin probe; assay type: biochemical
T1 sequence (Q9UNQ0 1-655): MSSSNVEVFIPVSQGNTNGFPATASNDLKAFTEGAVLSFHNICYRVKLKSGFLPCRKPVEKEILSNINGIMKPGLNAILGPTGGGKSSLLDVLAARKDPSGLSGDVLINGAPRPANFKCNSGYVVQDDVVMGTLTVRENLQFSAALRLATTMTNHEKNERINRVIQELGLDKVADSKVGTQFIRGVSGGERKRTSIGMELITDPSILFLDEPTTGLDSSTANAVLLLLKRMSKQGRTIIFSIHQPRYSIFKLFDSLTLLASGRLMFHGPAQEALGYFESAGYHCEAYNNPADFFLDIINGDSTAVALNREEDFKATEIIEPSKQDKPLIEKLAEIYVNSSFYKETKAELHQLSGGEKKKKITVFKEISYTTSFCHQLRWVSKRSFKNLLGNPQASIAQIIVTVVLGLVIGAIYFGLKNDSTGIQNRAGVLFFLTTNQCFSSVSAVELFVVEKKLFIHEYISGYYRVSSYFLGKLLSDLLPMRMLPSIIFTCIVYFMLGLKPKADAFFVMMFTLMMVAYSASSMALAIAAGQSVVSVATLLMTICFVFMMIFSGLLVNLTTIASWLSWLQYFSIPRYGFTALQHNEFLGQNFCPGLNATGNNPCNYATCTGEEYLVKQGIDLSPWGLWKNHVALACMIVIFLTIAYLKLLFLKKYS

OATP1B1 [1] = settings: cited from earlier work
OATP1B3 [2] = molecular target: T2, OATP1B3 (Homo sapiens, UniProt Q9NPD5); assay: Static DDI risk assessment, OATP1B3 R-value; settings: 1 + Iin,max,u/IC50; metabolite/combination additive; Imax,u for IV
T2 sequence (Q9NPD5 1-702): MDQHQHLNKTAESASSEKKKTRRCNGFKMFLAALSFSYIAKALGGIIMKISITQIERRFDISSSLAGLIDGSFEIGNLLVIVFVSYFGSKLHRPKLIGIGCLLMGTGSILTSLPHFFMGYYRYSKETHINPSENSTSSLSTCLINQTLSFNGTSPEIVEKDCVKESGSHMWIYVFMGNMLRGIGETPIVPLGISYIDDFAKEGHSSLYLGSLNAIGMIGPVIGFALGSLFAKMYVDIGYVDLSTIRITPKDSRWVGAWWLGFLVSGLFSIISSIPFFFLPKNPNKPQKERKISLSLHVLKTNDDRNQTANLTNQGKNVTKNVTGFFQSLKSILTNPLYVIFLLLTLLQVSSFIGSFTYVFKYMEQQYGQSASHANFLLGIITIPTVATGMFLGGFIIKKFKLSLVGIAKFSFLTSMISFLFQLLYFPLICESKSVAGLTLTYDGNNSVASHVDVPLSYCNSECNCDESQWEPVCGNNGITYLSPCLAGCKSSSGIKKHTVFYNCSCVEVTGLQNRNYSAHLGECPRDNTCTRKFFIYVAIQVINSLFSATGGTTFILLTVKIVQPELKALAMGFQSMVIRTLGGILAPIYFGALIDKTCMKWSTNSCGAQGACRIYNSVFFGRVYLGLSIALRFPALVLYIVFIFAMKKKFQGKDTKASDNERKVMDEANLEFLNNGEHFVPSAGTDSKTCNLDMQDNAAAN

OATP1B1 [3] = molecular target: T3, OATP1B1 (Homo sapiens, UniProt Q9Y6L6); assay: Static DDI risk assessment, OATP1B1 R-value; settings: 1 + Iin,max,u/IC50; metabolite/combination additive; Imax,u for IV
T3 sequence (Q9Y6L6 1-691): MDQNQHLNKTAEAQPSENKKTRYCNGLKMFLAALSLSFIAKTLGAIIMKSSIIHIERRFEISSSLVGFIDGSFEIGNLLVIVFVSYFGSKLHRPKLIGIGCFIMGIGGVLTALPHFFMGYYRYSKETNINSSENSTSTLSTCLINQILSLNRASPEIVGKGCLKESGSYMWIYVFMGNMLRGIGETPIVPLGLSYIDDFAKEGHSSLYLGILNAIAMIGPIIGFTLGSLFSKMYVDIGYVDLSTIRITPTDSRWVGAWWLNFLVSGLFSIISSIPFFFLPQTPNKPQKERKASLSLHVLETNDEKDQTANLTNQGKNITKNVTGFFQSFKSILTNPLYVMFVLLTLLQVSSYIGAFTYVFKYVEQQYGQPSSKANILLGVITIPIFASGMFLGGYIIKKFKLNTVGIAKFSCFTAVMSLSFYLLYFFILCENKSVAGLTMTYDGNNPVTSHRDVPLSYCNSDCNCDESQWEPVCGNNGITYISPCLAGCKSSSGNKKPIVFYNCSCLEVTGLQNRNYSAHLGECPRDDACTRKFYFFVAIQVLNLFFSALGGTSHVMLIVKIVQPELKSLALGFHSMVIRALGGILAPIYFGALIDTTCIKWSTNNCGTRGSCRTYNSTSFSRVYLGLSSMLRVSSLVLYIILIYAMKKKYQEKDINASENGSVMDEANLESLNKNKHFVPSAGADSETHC

[4] = cited from earlier work; for Rosuvastatin AUC ratio: observed, rosuvastatin with vs without inhibitor; for Rosuvastatin AUC ratio / Cmax ratio Observed: ref Table S1; for Cmax ratio Observed: rosuvastatin with/without inhibitor, regimens as in table row
OATP1B1 [5] = molecular target: T3, OATP1B1; assay: In vitro OATP1B1 inhibition, transfected HEK293 cells, rosuvastatin probe; assay type: cell-based
OATP1B3 [6] = molecular target: T2, OATP1B3; assay: In vitro OATP1B3 inhibition, transfected HEK293 cells, rosuvastatin probe; assay type: cell-based
BCRP (ABCG2 c.421C>A) = settings: cited from earlier work
[7] = substrate: CC(C)c1nc(N(C)S(C)(=O)=O)nc(-c2ccc(F)cc2)c1/C=C/[C@@H](O)C[C@@H](O)CC(=O)O; assay: BCRP-mediated transport of substrate; assay type: in vitro ADME, human; settings: other: membrane vesicles
[8] = substrate: CC(C)c1nc(N(C)S(C)(=O)=O)nc(-c2ccc(F)cc2)c1/C=C/[C@@H](O)C[C@@H](O)CC(=O)O; assay: OATP1B1-mediated transport of substrate; assay type: in vitro ADME; settings: other: transfected HEK293 cells

## C=C[C@@H]1C[C@]1(NC(=O)[C@@H]1C[C@@H]2CN1C(=O)[C@H](C(C)(C)C)NC(=O)O[C@@H]1C[C@H]1CCCCCc1nc3ccc(OC)cc3nc1O2)C(=O)NS(=O)(=O)C1CC1.O [Grazoprevir]
BCRP; read-out: BCRP IC50, membrane vesicles, rosuvastatin 0.2 µM probe
  IC50: 4.03 µM
OATP1B1 [1]
  effect on clinical PK of pitavastatin (OATP1B1 probe substrate): do not alter
OATP1B3 [2]
  1B3 R-Value: 1.07
OATP1B1 [3]
  1B1 R-Value: 1.24
[4]
  Rosuvastatin AUC ratio: 1.59
  Cmax ratio Observed: 4.25

## CC1=NN(c2ccc(C)c(C)c2)C(=O)/C1=N\Nc1cccc(-c2cccc(C(=O)O)c2)c1O [Eltrombopag]
BCRP
  IC50: 0.95 µM
OATP1B3 [2]
  1B3 R-Value: 1.10
OATP1B1 [3]
  1B1 R-Value: 1.01
OATP1B1 [5]
  IC50: 27.3 µM
[4]
  Rosuvastatin AUC ratio: 1.55
OATP1B3 [6]
  IC50: 3 µM

## O=C(O)c1cc(/N=N/c2ccc(S(=O)(=O)Nc3ccccn3)cc2)ccc1O [sulfasalazine]
BCRP (ABCG2 c.421C>A)
  increase in oral exposure, c.421A/A vs c.421C/C carriers: ≤ 3.5 fold

## C[C@H]1CN(C2COC2)CCN1c1ccc(Nc2cc(-c3ccnc(N4CCn5c(cc6c5CC(C)(C)C6)C4=O)c3CO)cn(C)c2=O)nc1 [Fenebrutinib]
BCRP
  IC50: 0.63 µM
OATP1B1 [1]
  change in plasma exposure of OATP1B1 biomarker coproporphyrin I: no change
OATP1B3 [2]
  1B3 R-Value: 3.86
OATP1B1 [3]
  1B1 R-Value: 1.46
OATP1B1 [5]
  IC50: 6.8 µM
[4]
  increase in rosuvastatin AUC: ~ 150%
  Rosuvastatin AUC ratio: 2.48
  Cmax ratio Observed: 4.74
OATP1B3 [6]
  IC50: 1.1 µM

B1: BCRP (Homo sapiens) (protein)
chain: MSSSNVEVFIPVSQGNTNGFPATASNDLKAFTEGAVLSFHNICYRVKLKSGFLPCRKPVEKEILSNINGIMKPGLNAILGPTGGGKSSLLDVLAARKDPSGLSGDVLINGAPRPANFKCNSGYVVQDDVVMGTLTVRENLQFSAALRLATTMTNHEKNERINRVIQELGLDKVADSKVGTQFIRGVSGGERKRTSIGMELITDPSILFLDEPTTGLDSSTANAVLLLLKRMSKQGRTIIFSIHQPRYSIFKLFDSLTLLASGRLMFHGPAQEALGYFESAGYHCEAYNNPADFFLDIINGDSTAVALNREEDFKATEIIEPSKQDKPLIEKLAEIYVNSSFYKETKAELHQLSGGEKKKKITVFKEISYTTSFCHQLRWVSKRSFKNLLGNPQASIAQIIVTVVLGLVIGAIYFGLKNDSTGIQNRAGVLFFLTTNQCFSSVSAVELFVVEKKLFIHEYISGYYRVSSYFLGKLLSDLLPMRMLPSIIFTCIVYFMLGLKPKADAFFVMMFTLMMVAYSASSMALAIAAGQSVVSVATLLMTICFVFMMIFSGLLVNLTTIASWLSWLQYFSIPRYGFTALQHNEFLGQNFCPGLNATGNNPCNYATCTGEEYLVKQGIDLSPWGLWKNHVALACMIVIFLTIAYLKLLFLKKYS
[7]
  Km: 3.2 µM

B2: OATP1B1 (Homo sapiens) (protein)
chain: MDQNQHLNKTAEAQPSENKKTRYCNGLKMFLAALSLSFIAKTLGAIIMKSSIIHIERRFEISSSLVGFIDGSFEIGNLLVIVFVSYFGSKLHRPKLIGIGCFIMGIGGVLTALPHFFMGYYRYSKETNINSSENSTSTLSTCLINQILSLNRASPEIVGKGCLKESGSYMWIYVFMGNMLRGIGETPIVPLGLSYIDDFAKEGHSSLYLGILNAIAMIGPIIGFTLGSLFSKMYVDIGYVDLSTIRITPTDSRWVGAWWLNFLVSGLFSIISSIPFFFLPQTPNKPQKERKASLSLHVLETNDEKDQTANLTNQGKNITKNVTGFFQSFKSILTNPLYVMFVLLTLLQVSSYIGAFTYVFKYVEQQYGQPSSKANILLGVITIPIFASGMFLGGYIIKKFKLNTVGIAKFSCFTAVMSLSFYLLYFFILCENKSVAGLTMTYDGNNPVTSHRDVPLSYCNSDCNCDESQWEPVCGNNGITYISPCLAGCKSSSGNKKPIVFYNCSCLEVTGLQNRNYSAHLGECPRDDACTRKFYFFVAIQVLNLFFSALGGTSHVMLIVKIVQPELKSLALGFHSMVIRALGGILAPIYFGALIDTTCIKWSTNNCGTRGSCRTYNSTSFSRVYLGLSSMLRVSSLVLYIILIYAMKKKYQEKDINASENGSVMDEANLESLNKNKHFVPSAGADSETHC
[8]
  Km: 3.8 µM
